What was measured:
IKZF2 = IKZF2 (Homo sapiens, UniProt Q96SW2+Q9UKS7); assay: HEK293 HiBiT in vitro degradation of IKZF2; format: cell-based; parameters: expressed in transfected cells; conditions: for Dmax: HEK293, HEK293 HiBiT; for Dmax / IKZF2 Dmax: maximum degradation at the highest concentration tested; for DC50 / IKZF2 Dmax: HEK293 HiBiT; for DC50: 18-24 hr incubation, normalized to DMSO control, read-out: IKZF2 EC50
Summary of the method: (§1)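 Dox-inducible ([…] final, overnight) HEK293 Flp-In T-REx, single-copy target-HiBiT C-terminal fusion; compound serial dilution, 18-24 h, 37 °C; lytic Nano-Glo luminescence; EC50, Dmax.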

IKZF1 = molecular target: T1, IKZF1 (Homo sapiens, UniProt Q13422+Q96SW2); assay: HEK293 HiBiT in vitro degradation of IKZF1; format: cell-based; conditions: for Dmax: HEK293, HEK293 HiBiT; for Dmax / IKZF1 Dmax: maximum degradation at the highest concentration tested; for DC50 / IKZF1 Dmax: HEK293 HiBiT; for DC50: 18-24 hr incubation, normalized to DMSO control, read-out: IKZF1 EC50
T1 construct: expressed in transfected cells
T1 sequence (Q13422 whole entry): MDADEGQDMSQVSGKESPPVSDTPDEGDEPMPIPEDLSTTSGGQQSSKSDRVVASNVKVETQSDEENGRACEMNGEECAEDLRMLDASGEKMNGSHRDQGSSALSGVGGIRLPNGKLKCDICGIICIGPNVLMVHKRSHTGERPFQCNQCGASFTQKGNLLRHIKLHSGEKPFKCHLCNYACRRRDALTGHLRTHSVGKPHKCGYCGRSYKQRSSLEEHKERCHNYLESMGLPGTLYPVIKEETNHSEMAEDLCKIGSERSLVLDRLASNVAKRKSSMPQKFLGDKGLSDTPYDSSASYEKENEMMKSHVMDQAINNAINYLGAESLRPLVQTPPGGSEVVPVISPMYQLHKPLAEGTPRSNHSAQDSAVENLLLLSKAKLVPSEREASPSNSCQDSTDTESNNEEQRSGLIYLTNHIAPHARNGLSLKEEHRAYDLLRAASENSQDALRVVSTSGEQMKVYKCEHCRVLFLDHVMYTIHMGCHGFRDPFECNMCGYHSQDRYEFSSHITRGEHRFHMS
T1 sequence (Q96SW2 whole entry): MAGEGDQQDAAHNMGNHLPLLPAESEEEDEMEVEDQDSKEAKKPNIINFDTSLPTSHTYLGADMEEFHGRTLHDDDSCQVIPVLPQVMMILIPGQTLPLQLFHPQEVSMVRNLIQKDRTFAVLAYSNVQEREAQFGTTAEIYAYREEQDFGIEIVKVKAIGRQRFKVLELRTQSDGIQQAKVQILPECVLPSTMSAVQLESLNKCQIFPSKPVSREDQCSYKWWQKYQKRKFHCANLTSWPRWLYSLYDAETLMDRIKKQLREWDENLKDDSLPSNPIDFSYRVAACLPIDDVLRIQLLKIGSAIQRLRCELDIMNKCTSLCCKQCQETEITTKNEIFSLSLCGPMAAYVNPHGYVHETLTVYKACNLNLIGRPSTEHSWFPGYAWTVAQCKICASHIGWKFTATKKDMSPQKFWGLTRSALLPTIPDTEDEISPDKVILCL
T1 sequence (Q16531 whole entry partner): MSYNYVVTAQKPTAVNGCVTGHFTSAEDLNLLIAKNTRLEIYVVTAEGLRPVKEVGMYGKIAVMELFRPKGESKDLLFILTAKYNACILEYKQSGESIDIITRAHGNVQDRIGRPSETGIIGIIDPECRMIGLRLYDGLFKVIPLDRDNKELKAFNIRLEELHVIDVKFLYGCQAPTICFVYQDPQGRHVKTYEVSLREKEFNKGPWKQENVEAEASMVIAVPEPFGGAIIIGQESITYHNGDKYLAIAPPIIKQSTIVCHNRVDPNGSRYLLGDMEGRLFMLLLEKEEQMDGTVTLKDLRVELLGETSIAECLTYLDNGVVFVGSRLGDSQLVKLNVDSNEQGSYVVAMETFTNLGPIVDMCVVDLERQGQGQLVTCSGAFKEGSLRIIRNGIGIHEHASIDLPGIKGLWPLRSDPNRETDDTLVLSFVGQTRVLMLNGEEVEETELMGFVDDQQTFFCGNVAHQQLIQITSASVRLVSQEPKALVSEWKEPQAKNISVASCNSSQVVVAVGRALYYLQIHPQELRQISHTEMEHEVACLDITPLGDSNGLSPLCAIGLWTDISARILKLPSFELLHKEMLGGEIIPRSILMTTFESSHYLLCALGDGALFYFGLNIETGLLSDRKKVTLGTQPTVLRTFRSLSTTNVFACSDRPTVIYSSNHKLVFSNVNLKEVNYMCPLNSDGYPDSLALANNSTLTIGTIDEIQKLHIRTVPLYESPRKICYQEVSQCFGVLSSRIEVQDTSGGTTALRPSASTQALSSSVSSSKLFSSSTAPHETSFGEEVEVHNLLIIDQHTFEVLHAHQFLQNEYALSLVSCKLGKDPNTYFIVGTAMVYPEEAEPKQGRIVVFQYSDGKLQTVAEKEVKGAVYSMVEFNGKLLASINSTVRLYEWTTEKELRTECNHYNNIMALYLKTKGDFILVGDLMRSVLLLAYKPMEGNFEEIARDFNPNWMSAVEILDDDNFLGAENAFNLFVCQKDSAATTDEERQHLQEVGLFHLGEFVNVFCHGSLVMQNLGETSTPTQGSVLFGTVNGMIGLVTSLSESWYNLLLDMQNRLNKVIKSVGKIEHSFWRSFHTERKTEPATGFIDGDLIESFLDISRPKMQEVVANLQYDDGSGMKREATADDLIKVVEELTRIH
Summary of the method: as §1

Chain of IKZF2 (Q9UKS7 1-500 isoform Q9UKS7-2): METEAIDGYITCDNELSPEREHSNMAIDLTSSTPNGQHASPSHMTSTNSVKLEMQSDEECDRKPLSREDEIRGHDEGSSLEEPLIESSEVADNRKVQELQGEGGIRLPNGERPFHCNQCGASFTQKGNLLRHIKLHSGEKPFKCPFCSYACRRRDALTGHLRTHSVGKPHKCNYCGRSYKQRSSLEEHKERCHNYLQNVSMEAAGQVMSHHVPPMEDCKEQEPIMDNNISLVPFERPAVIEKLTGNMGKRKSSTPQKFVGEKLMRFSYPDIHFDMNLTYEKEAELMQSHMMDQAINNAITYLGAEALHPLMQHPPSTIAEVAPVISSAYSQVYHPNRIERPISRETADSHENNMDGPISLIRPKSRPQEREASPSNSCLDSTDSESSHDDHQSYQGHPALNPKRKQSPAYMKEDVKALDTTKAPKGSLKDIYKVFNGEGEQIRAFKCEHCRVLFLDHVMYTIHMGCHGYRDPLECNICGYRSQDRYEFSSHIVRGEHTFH
Chain of IKZF2 (Q96SW2 whole entry, the tested form may be a part): as the sequence (Q96SW2 whole entry) above
Chain of IKZF2 (Q16531 whole entry partner, the tested form may be a part): as the sequence (Q16531 whole entry partner) above

Structure (SMILES) | Dmax (IKZF2) [%] | DC50 (IKZF2) [nM] | Dmax (IKZF1) [%] | DC50 (IKZF1) [nM] | IKZF2 Dmax (IKZF2) [%] | IKZF1 Dmax (IKZF1) [%]
O=C1CCC(N2Cc3cc(C[C@H]4CCCC[C@@H]4NC4CCC5(CCO5)CC4)ccc3C2=O)C(=O)N1 (stereo partly drawn) [Example 172] |  | 19 |  | 203 | 98 | 28
O=C1CCC(N2Cc3cc(C[C@H]4CCCC[C@@H]4NCC45CC(c6ccccc6)(C4)C5(F)F)ccc3C2=O)C(=O)N1 (stereo partly drawn) [Example 174] | 86 | 67 |  | > 1000 |  | 
CCC(C)N[C@H]1CCCC[C@@H]1Cc1ccc2c(c1)CN(C1CCC(=O)NC1=O)C2=O (stereo partly drawn) [Example 176] | 96 | 3 |  | > 1000 |  | 
O=C1CCC(N2Cc3cc(C[C@H]4CCCC[C@@H]4NC4Cc5ccccc5C4)ccc3C2=O)C(=O)N1 (stereo partly drawn) [Example 177] | 97 | 4 | 42 | 78 |  | 
O=C1CCC(N2Cc3cc(C[C@H]4CCC[C@@H]4NC4CCC(F)(F)CC4)ccc3C2=O)C(=O)N1 (stereo partly drawn) [Example 178] | 72 | 168 |  | > 1000 |  | 
CC(C)(CCN[C@H]1CCCC[C@@H]1Cc1ccc2c(c1)CN(C1CCC(=O)NC1=O)C2=O)C(F)(F)F (stereo partly drawn) [Example 182] | 94 | 9 | 34 | 43 |  | 
O=C1CCC(N2Cc3cc(C[C@H]4CCCC[C@@H]4NC4CCCCC4(F)F)ccc3C2=O)C(=O)N1 (stereo partly drawn) [Example 183] |  | 91 |  | > 1000 | 81 | 
O=C1CCC(N2Cc3cc(C[C@H]4CCCC[C@@H]4NC4CC5CCC(C4)O5)ccc3C2=O)C(=O)N1 (stereo partly drawn) [Example 184] |  | 3 |  | 56 | 97 | 30
O=C1CCC(N2Cc3c(ccc(C[C@H]4CCCC[C@@H]4NCC4CCOCC4)c3F)C2=O)C(=O)N1 (stereo partly drawn) [Example 187] |  | 8 |  | 78 | 96 | 37
O=C1CCC(N2Cc3c(ccc(C[C@H]4CCCC[C@@H]4NC4CCOC4)c3F)C2=O)C(=O)N1 (stereo partly drawn) [Example 190] |  | 2 |  | 57 | 97 | 44
O=C1CCC(N2Cc3cc(C[C@H]4CCCC[C@@H]4NC4CC5CCC(C5)C4)ccc3C2=O)C(=O)N1 (stereo partly drawn) [Example 191] | 97 | 2 | 30 | 63 |  | 
O=C1CCC(N2Cc3cc(C[C@H]4CCCC[C@@H]4NC4CC5CCC4O5)ccc3C2=O)C(=O)N1 (stereo partly drawn) [Example 193] | 96 | 7 |  | > 1000 |  | 
O=C1CCC(N2Cc3cc(C[C@H]4CCCC[C@@H]4NC4C5CCC4COC5)ccc3C2=O)C(=O)N1 (stereo partly drawn) [Example 194] | 92 | 20 |  | > 1000 |  | 
O=C1CCC(N2Cc3cc(C[C@H]4CCCC[C@@H]4NC4CCC5COC4O5)ccc3C2=O)C(=O)N1 (stereo partly drawn) [Example 195] | 96 | 9 |  | > 1000 |  | 
CC(N[C@H]1CCCC[C@@H]1Cc1ccc2c(c1)CN(C1CCC(=O)NC1=O)C2=O)C1CCOCC1 (stereo partly drawn) [Example 200] | 96 | 4 |  | > 1000 |  | 
CC(N[C@H]1CCCC[C@@H]1Cc1ccc2c(c1)CN(C1CCC(=O)NC1=O)C2=O)C1CCCC1 (stereo partly drawn) [Example 202] |  | 8 |  | > 1000 | 95 | 
CC(N[C@H]1CCCC[C@@H]1Cc1ccc2c(c1)CN(C1CCC(=O)NC1=O)C2=O)C1CCCCC1 (stereo partly drawn) [Example 203] | 95 | 13 |  | > 1000 |  | 
CC(CC1CC1)N[C@H]1CCCC[C@@H]1Cc1ccc2c(c1)CN(C1CCC(=O)NC1=O)C2=O (stereo partly drawn) [Example 204] | 97 | 4 |  | > 1000 |  | 
CC(CC(C)(C)C)N[C@H]1CCCC[C@@H]1Cc1ccc2c(c1)CN(C1CCC(=O)NC1=O)C2=O (stereo partly drawn) [Example 205] | 98 | 3 |  | > 1000 |  | 
CC(N[C@H]1CCCC[C@@H]1Cc1ccc2c(c1)CN(C1CCC(=O)NC1=O)C2=O)C1(C)CCC1 (stereo partly drawn) [Example 207] |  | 2 |  | > 1000 | 94 | 
[2H]C1(N[C@H]2CCCC[C@@H]2Cc2ccc3c(c2F)CN(C2CCC(=O)NC2=O)C3=O)CC2(CC2)C1 (stereo partly drawn) [Example 213] | 98 | 2 | 45 | 41 |  | 
O=C1CCC(N2Cc3cc(C[C@H]4CCCC[C@@H]4NC4CCC(C(F)F)CC4)ccc3C2=O)C(=O)N1 (stereo partly drawn) [Example 216] | 98 | 2 | 34 | 51 |  | 
CC(N[C@H]1CCCC[C@@H]1Cc1ccc2c(c1)CN(C1CCC(=O)NC1=O)C2=O)C1(C)CC1 (stereo partly drawn) [Example 234] | 98 | 11 |  | > 1000 |  | 
CC(N[C@H]1CCCC[C@@H]1Cc1ccc2c(c1)CN(C1CCC(=O)NC1=O)C2=O)C1(C)CC1 (stereo partly drawn) [Example 235] |  | 9 |  | > 1000 | 97 | 

The remaining compounds from weak to strong by DC50 (IKZF2), led by results:

Dmax (IKZF2) [%] | DC50 (IKZF2) [nM] | Dmax (IKZF1) [%] | DC50 (IKZF1) [nM] | IKZF2 Dmax (IKZF2) [%] | IKZF1 Dmax (IKZF1) [%] | Structure (SMILES)
85 | 39 |  | > 1000 |  |  | CC(C)N[C@H]1CCCO[C@@H]1Cc1ccc2c(c1)CN(C1CCC(=O)NC1=O)C2=O (stereo partly drawn) [Example 180]
98 | 26 | 37 | 198 |  |  | O=C1CCC(N2Cc3cc(C[C@H]4CCCC[C@@H]4NC4CCC5(CCO5)CC4)ccc3C2=O)C(=O)N1 (stereo partly drawn) [Example 171]
96 | 24 | 46 | 189 |  |  | O=C1CCC(N2Cc3cc(C[C@H]4CCCC[C@@H]4NC4CCOc5ccccc54)ccc3C2=O)C(=O)N1 (stereo partly drawn) [Example 175]
 | 16 |  | > 10000 | 88 |  | O=C1CCC(N2Cc3cc(C[C@H]4OCCC[C@@H]4NC4CCCCC4)ccc3C2=O)C(=O)N1 (stereo partly drawn) [Example 179]
97 | 16 |  | > 1000 |  |  | O=C1CCC(N2Cc3cc(C[C@H]4CCCC[C@@H]4NC4C[C@H]5COC[C@H]5C4)ccc3C2=O)C(=O)N1 (stereo partly drawn) [Example 198]
95 | 10 |  | > 10000 |  |  | O=C1CCC(N2Cc3cc(C[C@H]4CCCC[C@@H]4NC4C5CCCC4CC5)ccc3C2=O)C(=O)N1 (stereo partly drawn) [Example 199]
94 | 9 |  | > 1000 |  |  | O=C1CCC(N2Cc3cc(C[C@H]4CCCC[C@@H]4NC4CCCCC45CC5)ccc3C2=O)C(=O)N1 (stereo partly drawn) [Example 228]
 | 8 |  | 88 | 98 | 28 | O=C1CCC(N2Cc3c(ccc(C[C@H]4CCCC[C@@H]4NCC4COC4)c3F)C2=O)C(=O)N1 (stereo partly drawn) [Example 186]
 | 8 |  | > 1000 | 97 |  | O=C1CCC(N2Cc3cc(C[C@H]4CCCC[C@@H]4NC4CCCCC45CC5)ccc3C2=O)C(=O)N1 (stereo partly drawn) [Example 229]
96 | 7 |  | > 1000 |  |  | CC(N[C@H]1CCCC[C@@H]1Cc1ccc2c(c1)CN(C1CCC(=O)NC1=O)C2=O)C1CCCC1 (stereo partly drawn) [Example 201]
98 | 6 |  | > 1000 |  |  | CC(C)CC(C)N[C@H]1CCCC[C@@H]1Cc1ccc2c(c1)CN(C1CCC(=O)NC1=O)C2=O (stereo partly drawn) [Example 185]
94 | 6 |  | > 10000 |  |  | CC1(C)COCCC1N[C@H]1CCCC[C@@H]1Cc1ccc2c(c1)CN(C1CCC(=O)NC1=O)C2=O (stereo partly drawn) [Example 192]
98 | 6 | 34 | 122 |  |  | C[C@H]1CCCC(N[C@H]2CCCC[C@@H]2Cc2ccc3c(c2)CN(C2CCC(=O)NC2=O)C3=O)C1 (stereo partly drawn) [Example 236]
97 | 5 | 22 | 68 |  |  | O=C1CCC(N2Cc3cc(C[C@H]4CCCC[C@@H]4NC4CCCOCC4)ccc3C2=O)C(=O)N1 (stereo partly drawn) [Example 197]
 | 2 |  | 44 | 98 | 34 | O=C1CCC(N2Cc3c(ccc(C[C@H]4CCCC[C@@H]4NC4CCOCC4)c3F)C2=O)C(=O)N1 (stereo partly drawn) [Example 188]
 | 2 |  | 39 | 97 | 46 | O=C1CCC(N2Cc3c(ccc(C[C@H]4CCCC[C@@H]4NC4CCOC4)c3F)C2=O)C(=O)N1 (stereo partly drawn) [Example 189]
97 | 2 | 29 | 174 |  |  | [2H]C1(N[C@H]2CCCC[C@@H]2Cc2ccc3c(c2)CN(C2CCC(=O)NC2=O)C3=O)CCCCC1 (stereo partly drawn) [Example 215]
 | 2 |  | 208 | 96 | 39 | C[C@H]1CCCC(N[C@H]2CCCC[C@@H]2Cc2ccc3c(c2)CN(C2CCC(=O)NC2=O)C3=O)C1 (stereo partly drawn) [Example 237]
97 | 1 | 68 | 30 |  |  | [2H]C1(N[C@H]2CCCC[C@@H]2Cc2ccc3c(c2F)CN(C2CCC(=O)NC2=O)C3=O)CCC2(CC2)CC1 (stereo partly drawn) [Example 210]
98 | 1 | 37 | 54 |  |  | [2H]C1(N[C@H]2CCCC[C@@H]2Cc2ccc3c(c2F)CN(C2CCC(=O)NC2=O)C3=O)CCCCC1 (stereo partly drawn) [Example 211]
98 | 1 | 42 | 45 |  |  | [2H]C1(N[C@H]2CCCC[C@@H]2Cc2ccc3c(c2F)CN(C2CCC(=O)NC2=O)C3=O)CCCC1 (stereo partly drawn) [Example 212]

Reference: US11897862B2 (Gilead Sciences, Inc., priority 2022, dated 2024)
